Converted amounts (≈) assume the structure as drawn.
What was measured:
[1] = In vitro cytotoxic activity against human lung carcinoma (A549) tumor cell line; type: cell-based
[2] = In vitro cytotoxic activity against human ovarian carcinoma (1A9) tumor cell line
[3] = test system: KB-V (P-gp-expressing MDR KB subclone); experiment: Percentage inhibition of multi drug resistant KB subclone growth expressing P-glycoprotein (KB-V) at 4 ug/mL concentration was determined; conditions: for inhibition at 4 µg/mL: Homo sapiens, KB-V
[4] = (§1) In vitro cytotoxic activity against human epidermoid carcinoma of the nasopharynx (KB) tumor cell line
KB = experiment: as §1; type: functional, cell-based

| SMILES | IC50 [1] [µg/mL] | IC50 [2] [µg/mL] | Inhibition [3] [%] | IC50 [4] [µg/mL] | IC50 (KB) [µg/mL] | inhibition at 4 µg/mL [3] [%] |
| --- | --- | --- | --- | --- | --- | --- |
| COc1cc2c(c(OC)c1OC(=O)CN(C)C)-c1ccc(SC)c(=O)cc1C(NC(C)=O)CC2.O=C(O)C(O)C(O)C(=O)O (single isomer, unassigned; 5a) | 0.06 | 0.01 | 28 | 0.02 |  |  |
| COc1cc2c(c(OC)c1OC(=O)CN(C)C)-c1ccc(OC)c(=O)cc1[C@@H](NC(C)=O)CC2 | 0.44 (≈ 0.935 µM) | 0.04 (≈ 0.085 µM) |  |  | 0.09 (≈ 0.191 µM) | 5 |
| COc1cc2c(c(OC)c1OC(=O)CN(C)C)-c1ccc(SC)c(=O)cc1C(NC(C)=O)CC2 (single isomer, unassigned; 5) | 0.05 (≈ 0.103 µM) | 0.05 (≈ 0.103 µM) |  | 0.02 (≈ 0.0411 µM) |  | 45 |
| COc1cc2c(c(OC)c1O)-c1ccc(OC)c(=O)cc1[C@@H](NC(C)=O)CC2 [2-DESMETHYLCOLCHICIN] | 0.1 (≈ 0.259 µM) | 0.1 (≈ 0.259 µM) |  | 0.1 (≈ 0.259 µM) |  | 24 |
| COc1cc2c(c(OC)c1OC(=O)CN(C)C)-c1ccc(OC)c(=O)cc1[C@@H](NC(C)=O)CC2.O=C(O)C(O)C(O)C(=O)O | 0.88 | 0.11 | 4 | 0.16 |  |  |
| COc1cc2c(c(OC)c1O)-c1ccc(SC)c(=O)cc1[C@@H](NC(C)=O)CC2 | 0.01 (≈ 0.0249 µM) | 0.01 (≈ 0.0249 µM) |  | 0.01 (≈ 0.0249 µM) |  | 56 |
| COc1cc2c(c(OC)c1OC)-c1ccc(=O)c(O)cc1[C@@H](NC(C)=O)CC2 [COLCHICEINE] | 0.002 (≈ 0.00519 µM) | 0.003 (≈ 0.00778 µM) |  | 0.003 (≈ 0.00778 µM) |  |  |

Reference: ChEMBL document CHEMBL1145225, “Antitumor agents. Part 236: Synthesis of water-soluble colchicine derivatives” (Bioorg Med Chem Lett, 2005)
